pIC50: −log10 of the molar value. Structures can show the parent of a compound that is named as a salt.

Experimental findings from patent publication US12122780B2, “Pyrimidinyl group-containing tricyclic compound serving as c-Met inhibitor” (JIANGSU AOSAIKANG PHARMACEUTICAL CO., LTD., priority 2019, dated 2024) are described below.

For one assay, the target named is c-Met enzyme (Homo sapiens (Human), UniProt P08581). The experiment in a line: c-Met enzyme activity inhibition (Promega c-Met Kinase Enzyme System, ADP-Glo). The format is biochemical. Conditions: 10 μM ATP, 60 min, 30° C. The procedure:
To detect the inhibitory effect of the compounds on c-Met enzyme activity.
The c-Met Kinase Enzyme System was purchased from Promega. Envision multi-label analyzer (PerkinElmer).
The kinase buffer in the kit was used to dilute the enzyme, substrate, ATP and inhibitor.
The compound to be tested was diluted 5-fold to the eighth concentration with a discharge gun, i.e., from 50 μM to […], with a final DMSO concentration of 5%, and double duplicate wells experiment was set. 1 μL of each concentration gradient of the inhibitor, 2 μL of c-Met enzyme (4 ng), 2 μL of a mixture of the substrate and ATP (10 μM ATP, 0.2 μg/μL poly E4Y1) were added to the microplate, and the final concentration gradient of the compound of 10 μM was diluted to 0.13 nM. The reaction system was placed at 30° C. and the reaction was carried out for 60 minutes. When the reaction was completed, 5 μL of ADP-Glo reagent was added to each well and the reaction was carried out at 30° C. for another 40 minutes, when the reaction was completed, 10 μL of kinase detection reagent was added to each well, then the reaction was carried out at 30° C. for still another 30 minutes, chemiluminescence was read by the PerkinElmer Envision multi-label analyzer with an integration time of 0.5 seconds.
Using the equation (Sample-Min)/(Max-Min)*100% to convert the original data to the inhibition rate, the IC50 value can be obtained by curve fitting with four parameters (obtained by log(inhibitor) vs. response in GraphPad Prism—Variable slope mode).
(In ADP-Glo the light output rises with the ADP produced.)

The subject of the next assay is EBC-1 cells. The experiment in a line: EBC-1 cell proliferation experiment (CellTiter-Glo). The format is cell-based, human. The following applies: Homo sapiens, EBC-1, 72 h, 3 days. The procedure: MEM medium, fetal bovine serum, penicillin/streptomycin antibiotics were purchased from Wisent. EBC-1 cell line was purchased from Nanjing COBIO Bioscience Co., LTD. Envision multi-label analyzer (PerkinElmer).
EBC-1 cells were seeded in a white 96-well plate, […] cell suspension per well, which contained 3000 EBC-1 cells. The cell plate was placed in a carbon dioxide incubator for overnight culture.
The compound to be tested was diluted 5-fold to the eighth concentration with a discharge gun, i.e., from 2 mM to […], and double duplicate wells experiment was set. 78 μL of the medium was added to the middle plate, then 2 μL per well of gradient diluted compound was transferred to the corresponding position on the middle plate, then mixed well and 20 μL per well was transferred to the cell plate. The cell plate was cultured in a carbon dioxide incubator for 3 days. Another cell plate was prepared and the signal values were read on the day of dosing as […] to be used in the data analysis. 25 μL of Promega CellTiter-Glo was added to each well of this cell plate, and incubated at room temperature for 10 minutes to stabilize the luminescence signal. Readings were taken using a PerkinElmer Envision multi-label analyzer.
25 μL of Promega CellTiter-Glo reagent was added to each well of this cell plate, and incubated at room temperature for 10 minutes to stabilize the luminescence signal. Readings were taken using a PerkinElmer Envision multi-label analyzer.
Using the equation (Sample-Min)/(Max-Min)*100% to convert the original data to the inhibition rate, the IC50 value can be obtained by curve fitting with four parameters (obtained by “log(inhibitor) vs. response in GraphPad Prism—Variable slope mode).

The subject of the next assay is Hs746T cells. The experiment in a line: Hs746T cell proliferation experiment (CellTiter-Glo). Conditions: Homo sapiens, 96 h, 4 days. The format is cell-based. The procedure:
DMEM medium was purchased from Gibco, and fetal bovine serum was purchased from Hyclone. Hs746T cell line was purchased from ATCC. Envision multi-label analyzer (PerkinElmer).
Hs746T cells were seeded in a 384-well plate, 50 μL of cell suspension per well, which contained 1500 Hs746T cells. The cell plate was placed in a carbon dioxide incubator for overnight culture.
The compounds to be tested were 3-fold diluted into 9 concentrations with Tecan, double-duplicate well experiment was set, and the final compound concentrations added to the 384-well cell plate were 1000 nM to 0.15 nM. The cell plate was cultured in a carbon dioxide incubator for 4 days.
After 4 days, 25 μL of Promega CellTiter-Glo reagent was added to each well of this cell plate, and incubated at room temperature for 10 minutes to stabilize the luminescence signal. Readings were taken using a PerkinElmer Envision multi-label analyzer.
The action curves of the compounds were automatically fitted using Xlfit software and the values of IC50 were calculated, High control was the values of DMSO-treated wells and Low control was the values of cell-free medium wells.
For orientation: In ATP-based viability assays light output follows the ATP content of the culture.

Assay [1] deals with human lung cancer EBC-1 xenograft tumor. The experiment in a line: In vivo drug efficacy, human lung cancer EBC-1 xenograft tumor in nude mice. Details: species or system BALB/c nude mice. Conditions: for Tumor volume: n = 6; for TGI (tumor growth inhibition rate) / TRTV/CRTV (relative tumor proliferation rate T/C): 25th day. The procedure: BALB/c nude mice, female, 6-8 weeks old, weighing about 18-20 grams, animals were raised in SPF-class animal rooms in IVC (independent air supply system, constant temperature and humidity) cages (3 per cage). All cages, bedding and water were disinfected before use. All animals had free access to standard certified commercial laboratory diets. A total of 36 mice purchased from Shanghai Lingchang Biotechnology Co., Ltd. were used for research. Each animal was inoculated with 0.1 mL (5×10^6 cells) of EBC-1 cells on the right back, when the average tumor volume reached 243 mm^3, the animals were randomly grouped and the administration was started. The test compound was orally administered daily, the dose of hydrochloride of compound 24 was 10 mg/kg, the two doses of hydrochloride of compound 25 were 10 mg/kg and 20 mg/kg, respectively, and the dose of hydrochloride of compound 29 was 10 mg/kg. The tumor diameter was measured with vernier calipers twice a week. The calculation formula of tumor volume was: V=0.5a×b^2, a and b represented the long diameter and short diameter of the tumor, respectively. The anti-tumor efficacy of the compound was evaluated by TGI (%) or the relative tumor proliferation rate T/C (%). Relative tumor proliferation rate T/C (%)=TRTV/CRTV×100% (TRTV: average RTV in the treatment group; CRTV: average RTV in the negative control group). The relative tumor volume (RTV) was calculated according to the results of tumor measurement, the calculation formula was RTV=Vt/V0, wherein V0 was the tumor volume measured at the time of the grouping administration (i.e. D0), Vt was the tumor volume at a certain measurement, and TRTV and CRTV were taken on the same day. TGI (%) reflected the tumor growth inhibition rate. TGI (%)=[(1−(average tumor volume of a certain treatment group after administration-average tumor volume of the treatment group at the beginning of administration))/(average tumor volume of the solvent control group after the administration-average tumor volume of the solvent control group at the beginning of the administration)]×100%. Statistical analysis was performed based on RTV data at the end of the experiment, and SPSS software was used for analysis.

[2] abbreviates: 10 mg/kg oral daily (stopped after 15 days), day 18, mean ± standard error.
The mark [3] stands for this setting: 10 mg/kg oral daily (stopped after 15 days), day 21, mean ± standard error.
Where [4] appears, read: 10 mg/kg oral daily (stopped after 15 days), day 25, mean ± standard error.
Setting [5] is: 10 mg/kg oral daily (stopped after 15 days), day 27, mean ± standard error.
[6] abbreviates: 10 mg/kg oral daily, day 0, mean ± standard error.
Where [7] appears, read: 10 mg/kg oral daily, day 4, mean ± standard error.
Where [8] appears, read: 10 mg/kg oral daily, day 7, mean ± standard error.
[9] abbreviates: 10 mg/kg oral daily, day 11, mean ± standard error.
The mark [10] stands for this setting: 10 mg/kg oral daily, day 14, mean ± standard error.

Chain of c-Met enzyme (P08581 956-1390): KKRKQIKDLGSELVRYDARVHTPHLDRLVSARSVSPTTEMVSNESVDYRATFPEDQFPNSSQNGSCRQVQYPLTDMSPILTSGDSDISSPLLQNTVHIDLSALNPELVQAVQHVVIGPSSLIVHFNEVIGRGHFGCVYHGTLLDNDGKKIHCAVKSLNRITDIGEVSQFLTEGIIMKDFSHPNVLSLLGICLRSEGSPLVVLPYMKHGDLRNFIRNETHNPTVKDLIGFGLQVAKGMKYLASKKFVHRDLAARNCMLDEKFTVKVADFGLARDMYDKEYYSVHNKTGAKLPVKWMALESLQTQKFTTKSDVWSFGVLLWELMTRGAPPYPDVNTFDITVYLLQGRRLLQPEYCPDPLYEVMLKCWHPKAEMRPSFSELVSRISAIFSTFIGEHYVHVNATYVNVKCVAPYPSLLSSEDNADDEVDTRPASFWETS

For the compound `CN1CCC(O)(COc2cnc(-c3cccc(Cn4c(=O)ccn5c6cc(C#N)ccc6nc45)c3)nc2)CC1` [Hydrochloride of compound 34], the pIC50 (usually the IC50 on a negative log10 scale, so that one unit is a factor of ten) was 8.55 against c-Met enzyme, 8.31 with EBC-1 cells and 8.59 with Hs746T cells.
With `CC(C)N1CCC(O)(COc2cnc(-c3cccc(Cn4c(=O)ccn5c6cc(C#N)ccc6nc45)c3)nc2)CC1` [Hydrochloride of compound 37], the pIC50 was 8.37 at c-Met enzyme, 8.31 with EBC-1 cells and 8.60 in the assay on Hs746T cells.
For `COC1(COc2cnc(-c3cccc(Cn4c(=O)ccn5c6cc(C#N)ccc6nc45)c3)nc2)CCN(CCO)CC1` [Hydrochloride of compound 41], in that order: 8.18, 8.29 and 8.64.
On to `CCN1CCC(COc2cnc(-c3ccc(F)c(Cn4c(=O)ccn5c6cc(C#N)ccc6nc45)c3)nc2)CC1` [Hydrochloride of compound 29], for which the values for the pIC50 against c-Met enzyme and in the assay with EBC-1 cells were 8.20 and 7.99, respectively. Besides, the Tumor volume in assay [1] (setting [2]) came out at 218 ± 50 mm^3; in assay [1] (setting [3]) it was 243 ± 56 mm^3; in assay [1] (setting [4]) it was 337 ± 83 mm^3; in assay [1] (10 mg/kg oral daily (stopped after 15 days), day 25, mean ± standard error, listed as hydrochloride of compound 29) it was 337 mm^3; in assay [1] (setting [5]) it was 412 ± 100 mm^3; in assay [1] (setting [6]), 243 ± 17 mm^3. The Tumor volume stood at 299 ± 13 mm^3 in assay [1] (setting [7]), 318 ± 21 mm^3 in assay [1] (setting [8]), 294 ± 27 mm^3 in assay [1] (setting [9]) and 205 ± 37 mm^3 in assay [1] (setting [10]). Further, the “TGI (tumor growth inhibition rate)” value in assay [1] (10 mg/kg oral daily) came out at 94.8%. Also, the “TRTV/CRTV (relative tumor proliferation rate T/C)” value in assay [1] (10 mg/kg oral daily) stood at 16.2%.
In the case of `CCN1CCC(COc2cnc(-c3cccc(Cn4c(=O)ccn5c6cc(C#N)ccc6nc45)c3)nc2)CC1` [Hydrochloride of compound 24], the values for the negative-log IC50 (pIC50) at c-Met enzyme and with EBC-1 cells were 8.69 and 8.37, respectively. Besides, the Tumor volume in assay [1] (setting [2]) is 123 ± 31 mm^3; in assay [1] (setting [3]), 164 ± 45 mm^3; in assay [1] (setting [4]) it was 257 ± 72 mm^3; in assay [1] (10 mg/kg oral daily (stopped after 15 days), day 25, mean ± standard error, listed as hydrochloride of compound 24) it was 257 mm^3; in assay [1] (setting [5]) it was 366 ± 92 mm^3; in assay [1] (setting [6]) it was 244 ± 23 mm^3. Moreover, the Tumor volume in assay [1] (setting [7]) is given as 270 ± 22 mm^3; in assay [1] (setting [8]), 224 ± 16 mm^3; in assay [1] (setting [9]), 142 ± 24 mm^3; in assay [1] (setting [10]), 120 ± 25 mm^3. In addition, in assay [1] (10 mg/kg oral daily), the “TGI (tumor growth inhibition rate)” value is 99.3%. The “TRTV/CRTV (relative tumor proliferation rate T/C)” value in assay [1] (10 mg/kg oral daily) amounted to 13.7%.
`N#Cc1ccc2nc3n(Cc4cccc(-c5ncc(OCC6CCN(CCO)CC6)cn5)c4)c(=O)ccn3c2c1` [Hydrochloride of compound 30]: the pIC50 against c-Met enzyme is 8.13; with EBC-1 cells it was 8.15; with Hs746T cells, 8.70.
As to `COC1(COc2cnc(-c3cccc(Cn4c(=O)ccn5c6cc(C#N)ccc6nc45)c3)nc2)CCN(C)CC1` [Hydrochloride of compound 36], the figures for the pIC50 at c-Met enzyme, in the assay on EBC-1 cells and in the assay on Hs746T cells were 8.13, 8.21 and 8.57, respectively.
For `COC1(COc2cnc(-c3cccc(Cn4c(=O)ccn5c6cc(C#N)ccc6nc45)c3)nc2)CCN(C(C)C)CC1` [Hydrochloride of compound 38], the figures for the pIC50 at c-Met enzyme, with EBC-1 cells and in the assay with Hs746T cells were 8.12, 8.07 and 8.49, respectively.
